Experiment: logP by HPLC on reversed-phase column (C 18), EEC Directive 79/831 Annex V.A8
Format: physicochemical
Details: for LogP: HPLC reversed-phase C 18, 40° C., 0.1% aqueous formic acid and acetonitrile gradient

Structure (SMILES)	chromatographic logP	LogP
Cc1nnnn1/C(=N/OCc1csc(NC(=O)C(C)(C)C)n1)c1ccc(Cl)nc1 [compound 31]	2.9	
Cc1nnnn1C(=NOCc1csc(NC(=O)c2ccco2)n1)c1ccc(Cl)nc1 [compound 69]		2.46
Cc1cccc(/C(=N\OCc2cccc(N)n2)n2nnnc2C)n1 [compound 87, O-(2-Aminopyridin-6-yl)methyl-(6-methylpyridin-2-yl)-(5-methyltetrazol-1-yl)methanone oxime]	1.18	
Cc1cccc(C(=NOCc2noc(-c3cccc(C(F)(F)F)c3)n2)n2nnnc2C)n1 [compound 86]		3.67
COc1ccc(CCNC(=O)Nc2nc(CON=C(c3ccccn3)n3nnnc3C)cs2)cc1 [compound 22]		2.44
COCCC(=O)Nc1nc(CON=C(c2cnccc2OC)n2nnnc2C)cs1 [compound 138]		2.25
Cc1ccc(OC(=O)Nc2nc(CON=C(c3ccc(Cl)nc3)n3nnnc3C)cs2)cc1 [compound 76]		3.48
Cc1nnnn1C(=NOCc1csc(NC(=O)C2CC2)n1)c1ccc(Cl)nc1 [compound 39]		2.36
Cc1nc(CON=C(c2ccccn2)n2nnnc2C)cs1 [compound 7]		1.76
Cc1nnnn1C(=NOCc1csc(NC(=O)c2cccs2)n1)c1ccc(Cl)nc1 [compound 59]		2.82
Cc1cccc(C(=NOCc2noc(-c3ccccc3)n2)n2nnnc2C)n1 [compound 95]		3.11
COCCOCC(=O)Nc1nc(CON=C(c2ccc(Cl)nc2)n2nnnc2C)cs1 [compound 78]		2.4
C=C(C)C(=O)Nc1nc(CON=C(c2ccccn2)n2nnnc2C)cs1 [compound 3]		2.06
Cc1nnnn1C(=NOCc1nc(Cc2ccccc2)no1)c1ccc(Cl)nc1 [compound 49]		3.09
C=C(C)C(=O)Nc1nc(CON=C(c2cccc(C)n2)n2nnnc2C)cs1 [compound 97]		2.4
Cc1cccc(C(=NOCc2csc(NC(=O)NCCc3ccccc3)n2)n2nnnc2C)n1 [compound 107]		2.72
Cc1nnnn1C(=NOCc1csc(NC(=O)C2CC2)n1)c1ccccn1 [compound 14]		1.99
COc1ncccc1C(=NOCc1nc(N)sc1Br)n1nnnc1C [compound 153]		2.27
Cc1cccc(C(=NOCc2csc(NC(=O)c3ccccc3)n2)n2nnnc2C)n1 [compound 83]		2.78
Cc1nnnn1C(=NOCc1csc(NC(=O)C2CCCCC2)n1)c1ccc(Cl)nc1 [compound 32]		3.16
Cc1nc(CON=C(c2ccc(Cl)nc2)n2nnnc2C)cs1 [compound 40]		2.33

Structure (SMILES)	chromatographic logP	LogP
COc1ncccc1C(=NOCc1csc(N)n1)n1nnnc1C [compound 154]		1.24
CCCC(=O)Nc1nc(CON=C(c2cccc(C)n2)n2nnnc2C)cs1 [compound 82]		2.38
Cc1cccc(C(=NOCc2noc(-c3ccc(C(C)(C)C)cc3)n2)n2nnnc2C)n1 [compound 93]		4.5
Cc1nnnn1C(=NOCc1csc(NC(=O)c2ccccc2)n1)c1ccc(Cl)nc1 [compound 36]		2.87
COc1cccc(CNC(=O)Nc2nc(CON=C(c3cccc(C)n3)n3nnnc3C)cs2)c1 [compound 104]		2.59
Cc1cccnc1C(=NOCc1csc(NC(=O)Cc2ccccc2)n1)c1nnnn1C [compound 159]		2.62
Cc1cccc(C(=NOCc2nonc2N)n2nnnc2C)n1 [compound 84]		1.94
Cc1nnnn1C(=NOCc1nsc(N)n1)c1ccc(Cl)nc1 [compound 44]		1.78
Cc1nnnn1C(=NOCc1nonc1N)c1ccc(Cl)nc1 [compound 33]		1.88
COC(=O)c1coc(CON=C(c2cccc(C)n2)n2nnnc2C)n1 [compound 98]		2.01
CCCCCC(=O)Nc1nc(CO/N=C(\c2ncccc2C)c2nnnn2C)cs1 [compound 158, O-(2-Pentylcarbonylmino-1,3-thiazol-4-yl)methyl-(3-methylpyridin-2-yl)-(1-methyltetrazol-5-yl)methanone oxime]	2.94	
Cc1cccc(C(=NOCc2nsc(N)n2)n2nnnc2C)n1 [compound 96]		1.59
COc1ccncc1C(=NOCc1csc(NC(=O)CCc2ccccc2)n1)n1nnnc1C [compound 139]		3.31
CCCCCCCCOC(=O)Nc1nc(CON=C(c2cnccc2OC)n2nnnc2C)cs1 [compound 147]		5.03
Cc1nnnn1C(=NOCc1nsc(N)n1)c1ccccn1 [compound 21]		1.3
Cc1nnnn1C(=NOCc1csc(N)n1)c1ccc(Cl)nc1 [compound 34]		1.27
Cc1nnnn1C(=NOCc1csc(N)n1)c1ccccn1 [compound 1]		0.83
Cc1cccc(C(=NOCc2csc(N)n2)n2nnnc2C)n1 [compound 80]		1.2
CCCCCC(=O)Nc1cccc(CO/N=C(\c2cccc(C)n2)n2nnnc2C)n1 [compound 92, O-[2-(Pentylcarbonylamino)pyridin-6-yl]methyl-(6-methylpyridin-2-yl)-(5-methyltetrazol-1-yl)methanone Oxime]	3.43	
CCCCCC(=O)Nc1nc(CON=C(c2ccccn2)n2nnnc2C)cs1 [compound 4]		2.7

More lines, now with the values ahead:

chromatographic logP	LogP	Structure (SMILES)
	3.13	COc1ccncc1C(=NOCc1csc(NC(=O)c2ccccc2)n1)n1nnnc1C [compound 137]
	2.17	COCCC(=O)Nc1nonc1CON=C(c1ccc(Cl)nc1)n1nnnc1C [compound 72]
	2.38	Cc1nnnn1C(=NOCc1noc(-c2ccco2)n1)c1ccccn1 [compound 11]
	1.61	Cc1nnnn1C(=NOCc1csc(NC(=O)NC2CC2)n1)c1ccccn1 [compound 26]
	1.52	Cc1nnnn1C(=NOCc1nonc1N)c1ccccn1 [compound 6]
	3.44	CCCCCC(=O)Nc1nc(CON=C(c2cnccc2OC)n2nnnc2C)cs1 [compound 136]
	2.17	CCCNC(=O)Nc1nc(CON=C(c2cccc(C)n2)n2nnnc2C)cs1 [compound 103]
	2.79	Cc1nnnn1C(=NOCc1csc(NC(=O)NCCc2cccc(Cl)c2)n1)c1ccccn1 [compound 24]
	2.15	Cc1nnnn1C(=NOCc1csc(NC(=O)NCc2ccccc2)n1)c1ccccn1 [compound 15]
	1.95	CCCNC(=O)Nc1nc(CON=C(c2ccccn2)n2nnnc2C)cs1 [compound 19]
	2.16	Cc1nnnn1C(=NOCc1csc(NC(=O)NC(C)(C)C)n1)c1ccccn1 [compound 28]
	0.76	Cc1nnnn1C(=NOCc1cccc(N)n1)c1ccccn1 [compound 9]
	1.03	COc1ncccc1C(=NOCc1cccc(N)n1)n1nnnc1C [compound 152]
	3.34	Cc1cccc(C(=NOCc2csc(NC(=O)NCCc3ccc(Cl)c(Cl)c3)n2)n2nnnc2C)n1 [compound 102]
	1.98	Cc1nnnn1C(=NOCc1csc(NC(=O)NC2CC2)n1)c1ccc(Cl)nc1 [compound 48]
	2.78	Cc1cccc(C(=NOCc2csc(NC(=O)NCCc3ccc(F)cc3)n2)n2nnnc2C)n1 [compound 105]
	2.69	COc1ccccc1CNC(=O)Nc1nc(CON=C(c2cccc(C)n2)n2nnnc2C)cs1 [compound 108]
	4.47	Cc1nnnn1C(=NOCc1noc(-c2ccc(C(C)(C)C)cc2)n1)c1ccc(Cl)nc1 [compound 50]
	3.43	Cc1cccc(C(=NOCc2csc(NC(=O)NCCc3ccc(Cl)cc3Cl)n2)n2nnnc2C)n1 [compound 106]
	2.7	CCCC(=O)Nc1cccc(CON=C(c2cccc(C)n2)n2nnnc2C)n1 [compound 90]
	2.97	COc1ccc(C(=O)Nc2nc(CON=C(c3ccc(Cl)nc3)n3nnnc3C)cs2)cc1 [compound 57]
	2.97	Cc1nnnn1C(=NOCc1csc(NC(=O)C2CCCC2)n1)c1ccc(Cl)nc1 [compound 58]
1.04		Cc1cccnc1/C(=N\OCc1csc(N)n1)c1nnnn1C [compound 157, O-(2-Amino-1,3-thiazol-4-yl)methyl-(3-methylpyridin-2-yl)-(1-methyltetrazol-5-yl)methanone Oxime]
